# Laboratory results from patent EP3666770A1, “NOVEL HETEROCYCLIC COMPOUNDS AS CDK8/19 INHIBITORS” (Joint Stock Company "Biocad", priority 2017, dated 2019).
# Read-outs that look alike come from different tables or passages of the source.
# Legend:
# [1] = tested on: MV4-11; assay: Cell-based antiproliferative test (AlamarBlue), MV4-11; details: Homo sapiens, MV4-11, 120 h, read-out: MV-4-11 IC50, mkM
# Experimental: Antiproliferative activity of CDK8 inhibitors according to the present invention was measured in a cell-based test on continuous cell cultures MV4-11 (biphenotypic myelomonocytic leukemia, ATCC® CRL-9591™), KG-1 (acute myeloid leukemia, ATCC® CCL-246™), HL-60 (acute promyelocytic leukemia, ATCC® CCL-240™) using a vital stain AlamarBlue (ThermoFisher, #DAL1100). The cells were grown in RPMI-1640 (PanEco, #C330p) medium with addition of 10% FBS (Gibco, #16140-071); washed and resuspended in culture medium with 10% FBS (Gibco, #16140-071) in 96-well culture plates (Corning, #3599) with ≈ 10 ×10^3 cells in […] of medium per well. The compounds in question were dissolved in DMSO and diluted with a medium with 10% FBS (Gibco, #16140-071) to a final concentration ranging form 0 to 100 µM. […] of diluted compounds were then added to each well (final DMSO concentration was less than 1%) and incubated under 5% CO2 atmosphere at 37°C for 120 h. After incubating, 15 µL of AlamarBlue (ThermoFisher, #DAL1100) reagent was added per well, contents of plates were mixed in an orbital shaker (Biosan, Latvia) and further incubated for 3-5 h at 37°C under 5% CO2 atmosphere. Number of living cells was estimated using a microplate spectrophotometer (Tecan Infinite M200Pro, Switzerland) measuring fluorescent signal at the excitation wavelength (λEx) of 540 nm and emission wavelength (λEm) of 590 nm.
# IC50 was calculated using Magellan 7.2 software (Tecan, Switzerland) approximating experimental points by four-parameter logistic model with the optimization by Levenberg-Marquardt (table 7, table 7).
# [2] = Enzyme stability in human liver microsomes; format: in vitro ADME; details: pH 7.4; 0,5 mg/mL pooled human liver microsomes; 10 µM compound; 37°C; pH=7,4
# Experimental: Measuring of candidates' enzyme stability enabled estimation of the stability of the present compounds towards the action of enzymes in liver microsomes.
# Enzyme degradation rate was measured by incubating the reaction mixture in a dry block thermostat at 37°C, said reaction mixture comprising 0,5 mg/mL of pooled human liver microsomes (XenoTech, USA, cat#H2620), 10 µM compound, 2 mM β-nicotinamide adenine dinucleotide (Carbosynth, UK, cat#NN10871) and 4 mM magnesium chloride in 0,1 M sodium-phosphate buffer, pH=7,4. The reaction was quenched with acetonitrile (100 µL of acetonitrile / 100 µL of the reaction mixture). After quenching, the samples were centrifuged at 10000 rpm for 10 minutes. Supernatant fluid was tested by chromatographic technique using Agilent1200 (Agilent, USA). Chromatographic analysis was performed in a gradient elution regime with a flow rate of 1 mL/min. A graph of the logarithm of substance's peak area as a function of time was made. The dependent factor of the line corresponded to the elimination rate constant K based on which the drug's half-life t1/2 and degradation rate CLint were calculated: Elimination rate constant (k) = (−gradient) [formula] [formula] V(μL/mg) = (volume of incubation(μL))/(protein in the incubation(mg)) [formula] [formula]
# [3] = Chemical stability in human blood plasma; format: in vitro ADME; details: pooled human blood plasma; 10 µM; 4 hours at 37°C; substance amount in % after thermostatting
# Experimental: (§1) Chemical stability of the compounds described herein was determined in simulated gastric fluid and human blood plasma.
# (§2) Determination of stability in human blood plasma was performed using pooled human blood plasma taken from ten healthy donors. The initial candidate solution (10 mM in DMSO) was diluted with pooled blood plasma to a concentration of […] (test solution). The test solution was incubated in a dry block thermostat for 4 hours at 37°C. HPLC with Agilent 1200 liquid chromatography system (Agilent, USA) was employed to determine peak areas of the compounds in test samples, said peak areas corresponding to the initial test time (prior to incubation) and the final test time (after incubation in a dry block thermostat for 4 hours at 37°C), proteins were preliminarily precipitated with acetonitrile. Chromatographic analysis was performed in a gradient elution regime with a flow rate of 1 mL/min. Substance amount in % in a sample after thermostatting was determined.
# [4] = Chemical stability in simulated gastric fluid (SGF); format: physicochemical; details: SGF without enzymes, pH=1,4; 10 µm; 2 hours at 37°C; substance amount in % after thermostatting
# Experimental: as §1
# as §2, with “SGF concentrate without enzymes, pH=1,4 (Sigma Ireland, cat#01651)” for “Determination of stability in human blood plasma”, “used as simulated gastric fluid. Initial” for “performed using pooled human blood plasma taken from ten healthy donors. The initial”, “an SGF working solution” for “pooled blood plasma”, “2” for “4”, “37°C).” for “37°C), proteins were preliminarily precipitated with acetonitrile.”
# [5] = General cytotoxicity test on HepG2 cells; format: cell-based; details: human, HepG2 cells; 72 h incubation; 200 to 0.78 µM; average values of several tests; read-out: Hep-G2 CC50, mkM
# Experimental: Cell viability was assessed using the above method. Table 6. […] The results are presented as average values of activity obtained in several tests.
# [6] = 120 h incubation, average values of several tests
compound,measurement,setting,value
"O=C(C1CN(c2ccc3ncn(-c4ccc(-c5cn[nH]c5)cc4)c3c2)C1)N1CCOCC1 [CDK8-1-4, (1-(1-(4-(1H-pyrazol-4-yl)phenyl)-1H-benzo[d]imidazol-6-yl)azetidin-3-yl) (morpholino)methanone]",IC50,[1]; [6],0.7 µM
same,microsomal CLint at 10 µM,[2],18.8 µL/min/mg
same,"Stability in blood plasma, %",[3],100%
same,"Stability in SGF, %",[4],98.2%
same,CC50 at 72 h,[5],> 100 µM
"COC(=O)c1ccc(-n2cnc3c(F)cc(N4CC(C(=O)Nc5ccccc5)C4)cc32)cc1 [CDK8-1-7E, Methyl 4-(6-(3-(phenylcarbamoyl)azetidin-1-yl)-4-fluoro-1H-benzo[d]imidazol-1-yl)benzoate]",IC50,[1]; [6],> 2.5 µM
same,CC50 at 72 h,[5],> 100 µM
"COc1ccc(-n2cnc3ccc(N4CC(C(=O)N5CCOCC5)C4)cc32)cc1 [CDK8-1-12, (1-(1-(4-Methoxyphenyl)-1H-benzo[d]imidazol-6-yl)azetidin-3-yl)(morpholino) methanone]",IC50,[1]; [6],3.38 µM
same,microsomal CLint at 10 µM,[2],3 µL/min/mg
same,"Stability in blood plasma, %",[3],98%
same,"Stability in SGF, %",[4],98.1%
same,CC50 at 72 h,[5],> 100 µM
"Cn1cc(-c2ccc(-n3cnc4ccc(N5CC(C(=O)N6CCOCC6)C5)c(F)c43)cc2)cn1 [CDK8-1-20, (1-(1-(4-(1-methyl-1H-pyrazol-4-yl)phenyl)-7-fluoro-1H-benzo[d]imidazol-6-yl)azetidin-3-yl) (morpholino)methanone]",IC50,[1]; [6],> 1 µM
same,microsomal CLint at 10 µM,[2],12.4 µL/min/mg
same,"Stability in blood plasma, %",[3],100%
same,"Stability in SGF, %",[4],99.4%
same,CC50 at 72 h,[5],> 200 µM
"Cn1cc(-c2ccc(-c3cncc4ncc(C(=O)N5CC[C@@H](O)C5)cc34)cc2)cn1 [CDK8-3-4, (R)-(3-Hydroxypyrrolidin-1-yl) (5-(4-(1-methyl-1H-pyrazol-4-yl)phenyl)-1,7-naphthyridin-3-yl)methanone]",IC50,[1]; [6],7.51 µM
same,"Stability in blood plasma, %",[3],100%
same,"Stability in SGF, %",[4],100%
same,CC50 at 72 h,[5],76.4 µM
"CN1CCN(C(=O)c2cnc3cncc(-c4ccc(N(C)C)cc4)c3c2)CC1 [CDK8-3-8, (5-(4-(Dimethylamino)phenyl)-1,7-naphthyridin-3-yl)(4-methylpiperazin-1-yl) methanone]",IC50,[1]; [6],7.52 µM
same,microsomal CLint at 10 µM,[2],18 µL/min/mg
same,"Stability in blood plasma, %",[3],98%
same,"Stability in SGF, %",[4],95.4%
same,CC50 at 72 h,[5],> 200 µM
"Cn1cc(-c2ccc(-c3cncc4ncc(N5CC(C(=O)N6CCOCC6)C5)cc34)cc2)cn1 [CDK8-3-9, (1-(5-(4-(1-Methyl-1H-pyrazol-4-yl)phenyl)-1,7-naphthyridin-3-yl)azetidin-3-yl) (morpholino)methanone]",IC50,[1]; [6],10 µM
same,microsomal CLint at 10 µM,[2],8.8 µL/min/mg
same,"Stability in blood plasma, %",[3],100%
same,"Stability in SGF, %",[4],100%
same,CC50 at 72 h,[5],> 20 µM
"Cn1cc(-c2ccc(-c3cncc4ncc(C(=O)N5CCC[C@@H](O)C5)cc34)cc2)cn1 [CDK8-3-20, (R)-3-(Hydroxypiperidin-1-yl)(5-(4-(1-methyl-1H-pyrazol-4-yl)phenyl)-1,7-naphthyridin-3-yl)methanone]",IC50,[1],5.04 µM
"CN1CCN(C(=O)c2cnc3cncc(-c4ccc(-c5cnn(C)c5)cc4)c3c2)CC1 [CDK8-3-30, (4-Methylpiperazin-1-yl)(5-(4-(1-methyl-1H-pyrazol-4-yl)phenyl)-1,7-naphthyridin-3-yl)methanone]",IC50,[1]; [6],0.412 µM
same,CC50 at 72 h,[5],100 µM
"Cn1cc(-c2ccc(-c3cncc4ncc(C(=O)N5CCOCC5)cc34)cc2)cn1 [CDK8-3-33, (5-(4-(1-Methyl-1H-pyrazol-4-yl)phenyl)-1,7-naphthyridin-3-yl)(morpholino)methanone]",IC50,[1]; [6],2.06 µM
same,CC50 at 72 h,[5],100 µM
"CN(C)CCN(C)C(=O)c1cnc2cncc(-c3ccc(-c4cnn(C)c4)cc3)c2c1 [CDK8-3-35, N-(2-(Dimethylamino)ethyl)-N-methyl-5-(4-(1-methyl-1H-pyrazol-4-yl)phenyl)-1,7-naphthyridine-3-carboxamide]",IC50,[1]; [6],1.84 µM
same,CC50 at 72 h,[5],77.4 µM
COCCNC(=O)c1cnc2cncc(-c3ccc(-n4ccnc4)cc3)c2c1 [CDK8-3-41],IC50,[1]; [6],0.572 µM
same,CC50 at 72 h,[5],200 µM
"O=C(c1ccccn1)c1c[nH]c2ncc(-c3ccc(N4CCOCC4)c(O)c3)cc12 [CDK8-4-3, (5-(3-Hydroxy-4-morpholinophenyl)-1H-pyrrolo[2,3-b]pyridin-3-yl) (pyridin-2-yl) methanone]",IC50,[1]; [6],1.49 µM
same,microsomal CLint at 10 µM,[2],22 µL/min/mg
same,"Stability in blood plasma, %",[3],100%
same,"Stability in SGF, %",[4],100%
same,CC50 at 72 h,[5],> 200 µM
"CN(C)c1ccc(-c2cnc3[nH]cc(C(=O)c4ccncc4)c3c2)cc1O [CDK8-4-9, (5-(4-(Dimethylamino)-3-hydroxyphenyl)-1H-pyrrolo.[2,3-b]pyridin-3-yl) (pyridin-4-yl)methanone]",IC50,[1]; [6],2.1 µM
same,microsomal CLint at 10 µM,[2],21.6 µL/min/mg
same,"Stability in blood plasma, %",[3],100%
same,"Stability in SGF, %",[4],99.5%
same,CC50 at 72 h,[5],> 200 µM
"COc1cc(-c2cnc3[nH]cc(C(=O)c4cccnc4)c3c2)ccc1N(C)C [CDK8-4-25, (5-(4-(Dimethylamino)-3-methoxyphenyl)-1H-pyrrolo[2,3-b]pyridin-3-yl)(pyridin-3-yl)methanone]",IC50,[1]; [6],0.05 µM
same,microsomal CLint at 10 µM,[2],22.2 µL/min/mg
same,"Stability in blood plasma, %",[3],100%
same,"Stability in SGF, %",[4],100%
same,CC50 at 72 h,[5],4.7 µM
"CN(C)c1ccc(-c2cnc3[nH]cc(C(=O)c4cccnc4)c3c2)c(C#N)c1 [CDK8-4-26, 5-(Dimethylamino)-2-(3-nicotinoyl-1H-pyrrolo[2,3-b]pyridin-5-yl)benzonitrile]",IC50,[1]; [6],1.28 µM
same,microsomal CLint at 10 µM,[2],17.6 µL/min/mg
same,"Stability in blood plasma, %",[3],100%
same,"Stability in SGF, %",[4],100%
same,CC50 at 72 h,[5],> 100 µM
"CN1CCN(Cc2ccc(-c3ccnc4ccc(N5CCC(C)(C(N)=O)CC5)cc34)cc2)CC1 [CDK8-6-3, 4-Methyl-1-(4-(4-((4-methylpiperazin-1-yl)methyl)phenyl)quinolin-6-yl) piperidine-4-carboxamide]",IC50,[1]; [6],3.18 µM
same,microsomal CLint at 10 µM,[2],18.6 µL/min/mg
same,"Stability in SGF, %",[4],100%
same,CC50 at 72 h,[5],> 60 µM
"COCCOC(=O)c1cnc2cncc(-c3ccc(-c4cnn(C)c4)cc3)c2c1 [CDK8_3_28, 2-Methoxyethyl-5-[4-(methyl-1-H-pyrazol-4-yl)phenyl]-1,7-naphthyridine-3-carboxylate]",IC50,[1]; [6],0.871 µM
same,CC50 at 72 h,[5],48.4 µM
